According to patent US11026945B2, “Protein kinase RNA-like endoplasmic reticulum kinase (PERK) inhibitors for prevention and/or treatment of lung injury and/or inflammation” (THE TRUSTEES OF THE UNIVERSITY OF PENNSYLVANIA, priority 2016, dated 2021):

Columns and labels:
Format in all cases: cell-based, rat
[1] = system: integrated stress response (ISR) signaling (p-PERK, p-EIF2α, ATF4, CHOP); assay: Western blot of ISR signaling in stretched AEC-I monolayers
Description: To obtain monolayer rat type-II alveolar epithelial cells (AEC-II), cells were isolated from Sprague-Dawley rats (250-300 g, N=30 purchased from Charles River Laboratories, Wilmington, Mass.) described by Tschumperlin D J, Margulies SS. Equibiaxial deformation-induced injury of alveolar epithelial cells in vitro. Am J Physiol. 1998; 275(6 Pt 1):L1173-83. Epub 1998/12/09 (PubMed PMID: 9843855), with modifications. Briefly, animals were killed and the lungs were harvested. The lung tissue was digested with elastase at 37° C. and distal airways were isolated. Following, cells were placed on rat IgG coated containing no serum for 90 minutes to eliminate contaminating leukocytes and parenchymal cells. This isolation method yielded approximately 95% pure alveolar epithelial cell population. 1.3 million cells were plated on 1 cm diameter fibronectin-coated custom made silastic membranes. In permeability studies, biotin were mixed with fibronectin and membranes were pretreated with oxygen plasma coating to ensure homogenous distribution of the fibronectin. Cells were cultured with 10% fetal bovine serum (FBS)-containing Minimal Essential Medium (MEM) containing low dose antibiotics for 3 days. 32 to 40 monolayers were per rat. […] RNAiMax transfection reagent treatment using serum free media (Opti-MEM, Thermo Fisher Scientific, Waltham, Mass.). This is a negative control for siRNA experiments where serum free media is used for improved transfection efficiency; • B. non-targeting siRNA treatment ([…], Dharmacon) serves a negative control for transfection; • C. 0.5 μg siRNA treatment targeting PERK; • D. 0.5 μg siRNA treatment targeting ATF4; • E. 0.5 μg siRNA treatment targeting CHOP; • F. vehicle control (DMSO) for PI; and • G. 1 μM PI treatment.
(§1) The dose of siRNA and PI treatment was selected based on dose-response curves above (FIG. 2A-FIG. 2E). AEC-II transformed to AEC-I cells and formed a complete monolayer by day 4, expressing only AEC-I cell surface markers. On the day of the experiment, the medium was removed and replaced with HEPES-buffered MEM. Cells stretch was performed in a 37° C. incubator. The effect of ISR inhibition or control treatment was compared in the following three conditions (N=5 biological replicates/condition): 1) no stretch (NS) controls; 2) mechanical stretch with 12% surface change (S 12%); and 3) mechanical stretch with 25% surface change (S25%). The cell monolayers were exposed to the above mentioned conditions for 6 hours based on time course of ISR protein expression obtained during preliminary data collection (FIG. 2A-FIG. 2E). All membranes were treated with FITC-labeled streptavidin (Thermo Fisher Scientific) at the end of the experiment and light emission was detected at 488 nm with fluorescent microscopy (Nikon TE300, Melville, N.Y.). In a separate set of experiments (N=30 rats), in which the above mentioned treatment plan and conditions were used, cells were harvested at the end of the experiment by scraping them in RIPA buffer and total protein was extracted (N=3 membranes/treatment group performed for N=5 biological replicates per condition). Co-immunoprecipitation (IP) assays were performed using 5 μg of ZO-1 protein as bait (IP kit, Thermo Fisher Scientific). Following co-IP, immunoblotting was performed for ZO-1, OCLN and CLDN proteins 4, 7 and 18 (Invitrogen, Carlsbad, Calif.).
Rats (N=106) were euthanized with an overdose of sodium pentobarbital (55 mg/kg). The chest was shaved and cleaned with Wexcide. Tracheostomy was performed, and a 14 gauge (G) metal cannula was inserted in the trachea lumen. The animals were connected to a rodent ventilator (Harvard Apparatus Model 640, Holliston, Mass.). Subsequently, the chest and abdomen were opened by a midline incision, and the aorta was transected causing exsanguination. […]

AEC-I monolayers = assay: Cytokine levels in culture supernatant, multiplex bead assay; conditions: stretched monolayers, PI treatment
Protocol: Given the interest in cytokines as a biomarker of injury, the contribution of ISR signaling to stretch-induced proinflammatory mediator release was assessed by measuring the level of 26 common cytokines in the culture media in the presence and absence of PI. Generally low cytokine response to stretch was found with modest elevations in IL-18, IL-1α and MIP-1α (FIG. 4A-FIG. 4C). […] (FIG. 4A). To study the regulation of IL-18 by ISR, stretched and unstretched cells were treated with CHOP, ATF4 and PERK siRNA (FIG. 17A-FIG. 17B and FIG. 4D-FIG. 4F). […] Cell culture media IL-18 levels were compared to no siRNA and non-targeting siRNA treatments.
Culture media of stretched and unstretched AEC-I monolayers was collected at the end of the experiment. N=5 biological monolayer replicates were used per condition. 0.5 ml samples were concentrated to 30 μl using centrifugal filters (Amicon Ultra, EMD Millipore). Levels of 26 common cytokines and chemokines were measured with RECYTMAG-65K MILLIPLEX MAP Rat Cytokine Chemokine Magnetic Bead Panel multiplex bead assay (EMD Millipore Corp., Billerica, Mass.) in triplicates per the manufacturer's protocol. 25 μl samples were used. The following analytes were measured: epidermal growth factor (EGF), eotaxin, macrophage colony stimulating factor […], interleukin (IL)-1α, 2,4,5,6,10,12 (p70), 13, 17A, 18; granulocyte-macrophage colony stimulating factor (GM-CSF), regulated on activation, normal T cell expressed and secreted (RANTES), vascular […] growth factor (VEGF), fractalkine, interferon-γ (INFγ), interferon-γ-inducible protein 10 (IP-10), leptin, tumor necrosis factor-α (TNF-α), keratinocyte chemoattractant (GRO/KC), macrophage inflammatory protein (MIP)-1α and 2, monocyte chemoattractant protein (MCP-1), and LPS-induced chemokine (LIX). Samples were read in triplicates and an averaged value was obtained.

[2] = system: tight junction proteins (CLDN4, CLDN18) bound to ZO-1 in AEC-I monolayers; assay: Co-immunoprecipitation of tight junction proteins with ZO-1 as bait; conditions: stretched monolayers (25%, 6 hours), PI pretreatment
Protocol: as §1, with “Co-immunoprecipitation (IP) assays were performed using 5 μg of ZO-1 protein as bait (IP kit, Thermo Fisher Scientific). Following co-IP, immunoblotting was performed for ZO-1, OCLN and CLDN proteins 4, 7 and 18 (Invitrogen, Carlsbad, Calif.).” left out

[3] = stretched AEC-I monolayers, 1 μM PI, 24 hours pretreatment
[4] = unstretched monolayers, 1 μM PI for 18 hours

SMILES: Cn1cc(-c2ccc3c(c2)CCN3C(=O)Cc2cccc(C(F)(F)F)c2)c2c(N)ncnc21 [PI, 1-[5-(4-Amino-7-methyl-7H-pyrrolo[2,3-d]pyrimidin-5-yl)indolin-1-yl]-2-(3-trifluoromethylphenyl)ethanone]
- ATF4 [1, 3]: decreased
- CHOP [1, 3]: decreased
- p-EIF2α [1, 3]: decreased
- p-PERK [1, 3]: decreased
- Level of ATF4 [1, 4]: unaffected
- Level of CHOP [1, 4]: unaffected
- Level of p-EIF2α [1, 4]: unaffected
- Level of p-PERK [1, 4]: unaffected
- IL-1α level in supernatant (AEC-I monolayers): did not affect
- IL-18 level in supernatant (AEC-I monolayers): decreased
- MIP-1α level in supernatant (AEC-I monolayers): did not affect
- dissociation of CLDN 4 from ZO-1 [2]: prevented
- dissociation of CLDN 18 from ZO-1 [2]: prevented
